From patent US8674095B2, “Compounds for treating neuropsychiatric conditions” (Afraxis Holdings, Inc., priority 2008, dated 2014) come the findings set out here.

The structures appear in SMILES notation.

What all share (assay type): biochemical
The test system of assay [1] is PAK1, PAK2, PAK3, PAK-4. The assay can be described thus: PAK isoform inhibition profile of example compounds. The settings on record: classification of example compounds in the description; underlying IC50 data in Table 8. The text has this: In some embodiments, the PAK inhibitor is a Group I PAK inhibitor that inhibits, for example, one or more Group I PAK polypeptides, for example, PAK1, PAK2, and/or PAK3. […] In some embodiments, the PAK inhibitor is a PAK2 inhibitor. In some embodiments, the PAK inhibitor is a PAK3 inhibitor. In some embodiments, the PAK inhibitor is a mixed PAK1/PAK3 inhibitor. […] In some embodiments, the PAK inhibitor is a Group II PAK inhibitor that inhibits one or more Group II PAK polypeptides, for example PAK-4, PAK5, and/or PAK6. In some embodiments, the PAK inhibitor is a PAK4 inhibitor. In some embodiments, the PAK inhibitor is a PAK5 inhibitor. In some embodiments, the PAK inhibitor is a PAK6 inhibitor.
(§1) A fluorescence-based assay format is used to determine IC50 values of test compounds in vitro. Purified PAK kinase is incubated with ATP, and a test compound at various concentrations and a substrate peptide containing two fluorophores. In a second step, the reaction mix is incubated with a site-specific protease that cleaves non-phosphorylated but not phosphorylated substrate peptide, disrupting the FRET signal generated by the two fluorophores in the cleaved peptide (Z′Lyte™ Kinase assay platform; Life Technologies).
(§2) Reagents: 50 mM HEPES, pH 7.5; 0.01% BRIJ-35; 10 mM MgCl2; 1 mM EGTA, 2 uM substrate peptide Ser/Thr20 (proprietary Life Technologies Sequence), PAK enzyme [2.42-30.8 ng for PAK1, 0.29-6 ng for PAK2, 1.5-20 ng for PAK3 and 0.1-0.86 ng for PAK4; actual enzyme amounts depend on lot activity of the enzyme preparation]
(§3) Test compounds are dissolved in DMSO at various concentrations; the final DMSO concentration in the assay reaction is 1%.
(§4) ATP concentration at Km apparent is used in the assay [50 μM ATP for PAK1 assay, 75 μM ATP for PAK2 assay, 100 μM ATP for PAK3 assay, 5 μM ATP for PAK-4 assay] in a total assay volume of […] Assay reactions are incubated at room temperature for 1 hr. Following the kinase reaction, 5 μl of 1:256 dilution of development solution A (Life Technologies) is added and the reaction mix is incubated for an additional 1 hr at room temperature.
(§5) Plates are analyzed in a standard fluorescence plate reader (Tecan or equivalent) using an excitation wavelength of 400 nm and emission wavelengths of 445 nm and 520 nm. Inhibition of kinase reaction is determined by emission ratio=emission@445 nm/emission@520 nm

For assay [2], the target named is PAK2 (Homo sapiens, UniProt Q13177). Description: Z'Lyte fluorescence-based (FRET) kinase assay, PAK2. The settings on record: 75 μM ATP (Km apparent), 1 hr room temperature, 1% DMSO. As to the method: as §1, §2, §3, §4, §5
Assay [3] has as its target PAK4 (Homo sapiens, UniProt O96013). Description: Z'Lyte fluorescence-based (FRET) kinase assay, PAK4. The following applies: 5 μM ATP (Km apparent), 1 hr room temperature, 1% DMSO. As to the method:
as §1, §2, §3, §4, §5

For assay [4], the target named is PAK1 (Homo sapiens, UniProt Q13153). Description: Z'Lyte fluorescence-based (FRET) kinase assay, PAK1. The settings on record: 50 μM ATP (Km apparent), 1 hr room temperature, 1% DMSO. As to the method:
as §1, §2, §3, §4, §5

Chain of PAK4 (O96013 whole entry): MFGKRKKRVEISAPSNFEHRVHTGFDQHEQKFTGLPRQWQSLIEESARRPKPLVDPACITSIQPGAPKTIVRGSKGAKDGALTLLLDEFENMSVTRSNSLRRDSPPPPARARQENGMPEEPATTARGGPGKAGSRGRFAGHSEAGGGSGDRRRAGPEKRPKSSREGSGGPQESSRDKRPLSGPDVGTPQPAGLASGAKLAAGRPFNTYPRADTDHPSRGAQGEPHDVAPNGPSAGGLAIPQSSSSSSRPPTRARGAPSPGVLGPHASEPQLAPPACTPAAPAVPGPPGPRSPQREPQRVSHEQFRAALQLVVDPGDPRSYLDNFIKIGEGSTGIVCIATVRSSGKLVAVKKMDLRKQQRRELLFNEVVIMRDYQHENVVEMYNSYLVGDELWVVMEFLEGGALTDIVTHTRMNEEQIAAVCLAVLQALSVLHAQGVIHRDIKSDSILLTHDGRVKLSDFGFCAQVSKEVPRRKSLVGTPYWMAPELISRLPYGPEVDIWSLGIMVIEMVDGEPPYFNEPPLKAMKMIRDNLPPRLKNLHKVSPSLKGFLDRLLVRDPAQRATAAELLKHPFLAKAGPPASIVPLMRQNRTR
Chain of PAK2 (Q13177 whole entry): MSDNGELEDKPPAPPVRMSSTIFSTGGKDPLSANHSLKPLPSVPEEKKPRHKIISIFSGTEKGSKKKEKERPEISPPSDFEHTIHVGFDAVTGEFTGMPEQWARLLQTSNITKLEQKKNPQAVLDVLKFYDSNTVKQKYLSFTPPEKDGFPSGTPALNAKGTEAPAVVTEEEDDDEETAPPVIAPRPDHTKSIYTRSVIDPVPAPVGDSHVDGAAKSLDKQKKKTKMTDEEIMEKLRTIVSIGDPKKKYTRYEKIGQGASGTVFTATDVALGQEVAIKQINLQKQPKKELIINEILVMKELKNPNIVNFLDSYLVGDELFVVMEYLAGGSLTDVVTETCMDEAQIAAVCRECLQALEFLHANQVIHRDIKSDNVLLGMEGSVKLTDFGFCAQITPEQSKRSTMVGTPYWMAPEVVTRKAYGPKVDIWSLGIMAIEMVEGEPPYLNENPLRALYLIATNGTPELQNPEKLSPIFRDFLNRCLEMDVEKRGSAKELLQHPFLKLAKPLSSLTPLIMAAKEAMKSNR
Chain of PAK1 (Q13153 whole entry): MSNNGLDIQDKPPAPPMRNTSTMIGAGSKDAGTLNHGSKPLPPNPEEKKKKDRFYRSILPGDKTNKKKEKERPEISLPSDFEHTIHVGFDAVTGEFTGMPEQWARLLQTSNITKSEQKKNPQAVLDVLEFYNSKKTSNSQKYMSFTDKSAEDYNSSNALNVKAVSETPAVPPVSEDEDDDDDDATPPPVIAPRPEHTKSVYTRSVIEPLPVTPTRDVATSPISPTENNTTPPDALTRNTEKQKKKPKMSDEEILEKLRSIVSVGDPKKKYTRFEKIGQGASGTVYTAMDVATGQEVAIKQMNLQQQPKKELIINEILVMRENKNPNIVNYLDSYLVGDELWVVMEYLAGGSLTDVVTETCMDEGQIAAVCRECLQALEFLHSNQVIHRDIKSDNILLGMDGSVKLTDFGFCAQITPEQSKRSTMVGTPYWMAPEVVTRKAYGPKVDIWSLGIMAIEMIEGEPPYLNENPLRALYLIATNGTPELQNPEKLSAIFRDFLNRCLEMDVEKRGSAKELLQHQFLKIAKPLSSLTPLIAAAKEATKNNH

For `CN1CCN(c2ccc(Nc3ncc4ccc(=O)n(C5CCCC5)c4n3)cc2)CC1` [Compound 2], the “PAK inhibitor type (isoform profile)” value in assay [1] was “PAK1 inhibitor”. The same measure, in the same setting: the same measure for `CN1CCN(c2ccc(Nc3ncc4ccc(=O)n(C5CCc6ccccc65)c4n3)cc2)CC1` (stereo not drawn) [Compound 7]: “PAK1 inhibitor”; for `O=c1ccc2cnc(Nc3ccc(OC4CCNCC4)cc3)nc2n1Cc1ccccc1C(F)(F)F` [Compound 13]: “mixed PAK1/PAK2/PAK3/PAK-4 inhibitor”.

For the molecule `CN(c1ccc(Nc2ncc3ccc(=O)n(Cc4ccccc4C(F)(F)F)c3n2)cc1)C1CCCNC1` (stereo not drawn) [Compound 14], the “PAK inhibitor type (isoform profile)” value in assay [1] is listed as “mixed PAK1/PAK2/PAK3/PAK-4 inhibitor”. Same read-out and setting: the same measure for `O=c1ccc2cnc(Nc3ccc(OC4CCCNC4)cc3)nc2n1Cc1ccccc1C(F)(F)F` (stereo not drawn) [Compound 15]: “mixed PAK1/PAK2/PAK3/PAK-4 inhibitor”. On the same count and under the same terms, the same measure for `CN1CCN(c2ccc(Nc3ncc4ccc(=O)n(C5Cc6ccccc6C5)c4n3)cc2)CC1` [Compound 18]: “mixed PAK1/PAK-4 inhibitor”.

Regarding `CN1CCN(c2ccc(Nc3ncc4ccc(=O)n(C5CCc6ccccc6C5)c4n3)cc2)CC1` (stereo not drawn) [Compound 19], in assay [1], the “PAK inhibitor type (isoform profile)” value is “mixed PAK1/PAK2/PAK3/PAK-4 inhibitor”. Still for that read-out and setting: the same measure for `CN1CCN(c2ccc(Nc3ncc4ccc(=O)n(C5CCC(C)(C)c6ccccc65)c4n3)cc2)CC1` (stereo not drawn) [Compound 21]: “mixed PAK1/PAK2 inhibitor”; for `O=c1ccc2cnc(Nc3ccc(N4CCNCC4)c(F)c3)nc2n1C1Cc2ccccc2C1` [Compound 22]: “mixed PAK1/PAK2/PAK-4 inhibitor”; for `O=c1ccc2cnc(Nc3ccc(N4CCNCC4)c(F)c3)nc2n1C1CCc2ccccc2C1` (stereo not drawn) [Compound 23]: “mixed PAK1/PAK2/PAK3/PAK-4 inhibitor”. Same read-out and setting: the same measure for `CN1CCN(c2ccc(Nc3ncc4ccc(=O)n(Cc5ccccc5Cl)c4n3)cc2)CC1` [Compound 33]: “mixed PAK1/PAK2 inhibitor”.

Take `CN1CCN(c2ccc(Nc3ncc4ccc(=O)n(Cc5cccc(Cl)c5)c4n3)cc2)CC1` [Compound 34]: the figures for the IC50 in assay [2], in assay [3] and in assay [4] were above 10 µM, above 10 µM and 1 to 10 µM, respectively.

In the case of `COc1ccccc1Cn1c(=O)ccc2cnc(Nc3ccc(N4CCN(C)CC4)cc3)nc21` [Compound 36], the “PAK inhibitor type (isoform profile)” value in assay [1] is “PAK1 inhibitor”. As to `CN1CCN(c2ccc(Nc3ncc4ccc(=O)n(Cc5ccccc5OC(F)(F)F)c4n3)cc2)CC1` [Compound 43], the “PAK inhibitor type (isoform profile)” value in assay [1] is on record as “mixed PAK1/PAK2 inhibitor”. As to `CN1CCN(c2ccc(Nc3ncc4ccc(=O)n(Cc5ccccc5C(F)(F)F)c4n3)cc2)CC1` [Compound 44], the “PAK inhibitor type (isoform profile)” value in assay [1] is recorded as “mixed PAK1/PAK2/PAK3/PAK-4 inhibitor”. In the case of `CN1CCN(c2ccc(Nc3ncc4ccc(=O)n(Cc5ccccc5SC(F)(F)F)c4n3)cc2)CC1` [Compound 45], the “PAK inhibitor type (isoform profile)” value in assay [1] is recorded as “mixed PAK1/PAK2/PAK3/PAK-4 inhibitor”. On the same count and under the same terms, the same measure for `CN1CCN(c2ccc(Nc3ncc4ccc(=O)n(Cc5ccccc5OC(F)F)c4n3)cc2)CC1` [Compound 46]: “mixed PAK1/PAK2/PAK3/PAK-4 inhibitor”; for `CN1CCN(c2ccc(Nc3ncc4ccc(=O)n(CCc5ccccc5)c4n3)cc2)CC1` [Compound 51]: “mixed PAK1/PAK2/PAK-4 inhibitor”.

In the case of `CN1CCN(c2ccc(Nc3ncc4ccc(=O)n(Cc5ccccc5-n5cccn5)c4n3)cc2)CC1` [Compound 55], the “PAK inhibitor type (isoform profile)” value in assay [1] was “PAK1 inhibitor”. On the same count and under the same terms, the same measure for `COc1ccc(F)cc1Cn1c(=O)ccc2cnc(Nc3ccc(N4CCN(C)CC4)cc3)nc21` [Compound 56]: “PAK1 inhibitor”. On to `CN1CCN(c2ccc(Nc3ncc4ccc(=O)n(Cc5c(F)cccc5C(F)(F)F)c4n3)cc2)CC1` [Compound 60], for which the IC50 in assay [2] is below 1 µM. The “PAK inhibitor type (isoform profile)” value in assay [1] is “mixed PAK1/PAK2/PAK3/PAK-4 inhibitor”. As to `CN1CCCC(Nc2ccc(Nc3ncc4ccc(=O)n(Cc5ccccc5C(F)(F)F)c4n3)cc2)C1` (stereo not drawn) [Compound 63], the “PAK inhibitor type (isoform profile)” value in assay [1] is listed as “mixed PAK1/PAK2/PAK3/PAK-4 inhibitor”. Consider `CCOc1ccccc1Cn1c(=O)ccc2cnc(Nc3ccc(N4CCN(C)CC4)cc3)nc21` [Compound 64], for which, in assay [1], the “PAK inhibitor type (isoform profile)” value is “inhibits all three Group I PAK isoforms (PAK1, 2 and PAK3) with equal or similar potency”. Consider `O=c1ccc2cnc(Nc3ccc(N4CCNCC4)c(F)c3)nc2n1Cc1c(Cl)cccc1C1CC1` [Compound 86], for which, in assay [2], the IC50 was below 1 µM. Further, in assay [1], the “PAK inhibitor type (isoform profile)” value is “inhibits all three Group I PAK isoforms (PAK1, 2 and PAK3) with equal or similar potency”.

As for `CSc1cccc(F)c1Cn1c(=O)ccc2cnc(Nc3ccc(N4CCN(C)CC4)cc3)nc21` [Compound 91, 8-(2-fluoro-6-(methylthio)benzyl)-2-(4-(4-methylpiperazin-1-yl)phenylamino)pyrido[2,3-d]pyrimidin-7(8H)-one], the IC50 in assay [2] is below 1 µM. For the same molecule, in assay [1], the “PAK inhibitor type (isoform profile)” value is recorded as “mixed PAK1/PAK2/PAK3/PAK-4 inhibitor”.

For `CN(C)CCOc1ccc(Nc2nccc(-c3ccc(NCCN)nc3)n2)cc1` [Compound 96], the half-inhibitory concentration (IC50) in assay [2], in assay [3] and in assay [4] was 1 to 10 µM in each case. Regarding `CN1CCN(c2ccc(Nc3nccc(-c4ccc(Cl)nc4)n3)cc2)CC1` [Compound 97], the half-inhibitory concentration (IC50) was above 10 µM in assay [2], above 10 µM in assay [3] and 1 to 10 µM in assay [4]. With `CN1CCN(c2ccc(Nc3nccc(-c4ccc(NCCCN)nc4)n3)cc2)CC1` [Compound 98], the IC50 in assay [2] is 1 to 10 µM; in assay [3] it was 1 to 10 µM; in assay [4], below 1 µM. For the same molecule, in assay [1], the “PAK inhibitor type (isoform profile)” value is on record as “PAK1 inhibitor”. With `CN1CCN(c2ccc(Nc3nccc(-c4ccc(NCCN5CCOCC5)nc4)n3)cc2)CC1` [Compound 99], the IC50 in assay [2] is above 10 µM; in assay [3], 1 to 10 µM; in assay [4] it was 1 to 10 µM. For `CN(C)CCNc1ccc(-c2ccnc(Nc3ccc(N4CCN(C)CC4)cc3)n2)cn1` [Compound 101], the IC50 in assay [2], in assay [3] and in assay [4] was 1 to 10 µM each time.

With `CN(C)CCOc1ccc(-c2ccnc(Nc3ccc(N4CCN(C)CC4)cc3)n2)cn1` [Compound 102], the IC50 is above 10 µM in assay [2], above 10 µM in assay [3] and 1 to 10 µM in assay [4]. Turning to `CN1CCN(CCNc2ccc(-c3ccnc(Nc4ccc(N5CCN(C)CC5)cc4)n3)cn2)CC1` [Compound 103], the IC50 in assay [2] is above 10 µM; in assay [3], above 10 µM; in assay [4] it was 1 to 10 µM.

In the case of `CCCNc1ccc(-c2ccnc(Nc3ccc(N4CCN(C)CC4)cc3)n2)cn1` [Compound 105], the half-inhibitory concentration (IC50) in assay [2], in assay [3] and in assay [4] was 1 to 10 µM throughout. On to `Cc1cc(Nc2nccc(-c3ccc(NCCN)nc3)n2)ccc1N1CCN(C)CC1` [Compound 106], for which the half-inhibitory concentration (IC50) in assay [2] fell in the range of 1 to 10 µM. Besides, the “PAK inhibitor type (isoform profile)” value in assay [1] was “mixed PAK1/PAK-4 inhibitor”. `CN1CCN(c2ccc(N(C)c3nccc(-c4ccc(NCCN)nc4)n3)cc2)CC1` [Compound 114]: the IC50 in assay [2], in assay [3] and in assay [4] was above 10 µM in each case. As for `O=c1c(-c2ccccc2)cc2cnc(Nc3ccc(N4CCNCC4)cc3)nc2n1Cc1ccccc1C(F)(F)F` [Compound 120], in assay [2], the IC50 is below 1 µM. For the same molecule, in assay [1], the “PAK inhibitor type (isoform profile)” value is “inhibits all three Group I PAK isoforms (PAK1, 2 and PAK3) with equal or similar potency”.

Regarding `O=c1c(-c2ccccc2)cc2cnc(Nc3ccc(NC4CCCNC4)cc3)nc2n1Cc1ccccc1C(F)(F)F` (stereo not drawn) [Compound 121], the “PAK inhibitor type (isoform profile)” value in assay [1] was “inhibits all three Group I PAK isoforms (PAK1, 2 and PAK3) with equal or similar potency”.

One may read the IC50 as the concentration needed to halve the response being measured.
